Assay results reported in ChEMBL document CHEMBL1671865, “Clostridium difficile infections in a Canadian tertiary care hospital before and during a regional epidemic associated with the BI/NAP1/027 strain” (2008).
Converted amounts (≈) assume the structure as drawn.

What was measured:
Type in all cases: functional
[1] = test system: Clostridioides difficile; experiment: Antimicrobial activity against Clostridium difficile harboring ribotype 001 by CLSI agar dilution method
[2] = test system: Clostridioides difficile; experiment: Antimicrobial activity against Clostridium difficile harboring other ribotypes by CLSI agar dilution method
[3] = test system: Clostridioides difficile; experiment: Antimicrobial activity against Clostridium difficile harboring ribotype 027 by CLSI agar dilution method

Molecule | MIC50 [1] | MIC90 [1] | MIC50 [2] | MIC90 [2] | MIC50 [3] | MIC90 [3] | MIC [1] | MIC [3]
RAMOPLANIN | 0.25 µg/mL | 0.25 µg/mL | 0.25 µg/mL | 0.25 µg/mL | 0.12 µg/mL | 0.25 µg/mL | – | –
CCS(=O)(=O)CCn1c([N+](=O)[O-])cnc1C [TINIDAZOLE] | 0.5 µg/mL (≈ 2.02 µM) | 0.5 µg/mL (≈ 2.02 µM) | 0.25 µg/mL (≈ 1.01 µM) | 0.5 µg/mL (≈ 2.02 µM) | 1 µg/mL (≈ 4.04 µM) | 1 µg/mL (≈ 4.04 µM) | – | –
CCC[C@@H]1C[C@@H](C(=O)N[C@@H]([C@H]2O[C@H](SC)[C@H](O)[C@@H](O)[C@H]2O)[C@H](C)Cl)N(C)C1 [CLINDAMYCIN] | > 64 µg/mL | > 64 µg/mL | 4 µg/mL (≈ 9.41 µM) | 8 µg/mL (≈ 18.8 µM) | 4 µg/mL (≈ 9.41 µM) | 8 µg/mL (≈ 18.8 µM) | > 64 µg/mL | –
CN[C@H](CC(C)C)C(=O)N[C@H]1C(=O)N[C@@H](CC(N)=O)C(=O)N[C@H]2C(=O)N[C@H]3C(=O)N[C@H](C(=O)N[C@H](C(=O)O)c4cc(O)cc(O)c4-c4cc3ccc4O)[C@H](O)c3ccc(c(Cl)c3)Oc3cc2cc(c3O[C@@H]2O[C@H](CO)[C@@H](O)[C@H](O)[C@H]2O[C@H]2C[C@](C)(N)[C@H](O)[C@H](C)O2)Oc2ccc(cc2Cl)[C@H]1O [VANCOMYCIN] | 1 µg/mL (≈ 0.69 µM) | 1 µg/mL (≈ 0.69 µM) | 1 µg/mL (≈ 0.69 µM) | 1 µg/mL (≈ 0.69 µM) | 0.5 µg/mL (≈ 0.345 µM) | 2 µg/mL (≈ 1.38 µM) | – | 0.5 µg/mL (≈ 0.345 µM)
Cc1ncc([N+](=O)[O-])n1CCO [METRONIDAZOLE] | 0.5 µg/mL (≈ 2.92 µM) | 0.5 µg/mL (≈ 2.92 µM) | 0.25 µg/mL (≈ 1.46 µM) | 0.5 µg/mL (≈ 2.92 µM) | 1 µg/mL (≈ 5.84 µM) | 1 µg/mL (≈ 5.84 µM) | – | –
COc1c(N2CCNC(C)C2)c(F)cc2c(=O)c(C(=O)O)cn(C3CC3)c12 (stereo not drawn) [GATIFLOXACIN] | 32 µg/mL (≈ 85.2 µM) | 32 µg/mL (≈ 85.2 µM) | 2 µg/mL (≈ 5.33 µM) | > 32 µg/mL | > 32 µg/mL | > 32 µg/mL | – | –
